Test [1] concerns the target Carbonic anhydrase 5A, mitochondrial (Homo sapiens, UniProt P35218).
The target in test [2] is Carbonic anhydrase 4 (Homo sapiens, UniProt P22748).
Test [3] addresses Carbonic anhydrase 14 (Homo sapiens, UniProt Q9ULX7).
The target of test [4] is Carbonic anhydrase 9 (Homo sapiens, UniProt Q16790).
Test [5] concerns the target Carbonic anhydrase 2 (Homo sapiens, UniProt P00918).
The target of test [6] is Carbonic anhydrase 13 (Mus musculus, UniProt Q9D6N1).
For test [7], the target named is Carbonic anhydrase 3 (Homo sapiens, UniProt P07451).
The target of test [8] is Carbonic anhydrase 6 (Homo sapiens, UniProt P23280).
Test [9] deals with Carbonic anhydrase 5B, mitochondrial (Homo sapiens, UniProt Q9Y2D0).
Test [10] concerns the target Carbonic anhydrase 7 (Homo sapiens, UniProt P43166).

Molecules are shown by their SMILES.

Sequence of Carbonic anhydrase 3 (P07451 whole entry): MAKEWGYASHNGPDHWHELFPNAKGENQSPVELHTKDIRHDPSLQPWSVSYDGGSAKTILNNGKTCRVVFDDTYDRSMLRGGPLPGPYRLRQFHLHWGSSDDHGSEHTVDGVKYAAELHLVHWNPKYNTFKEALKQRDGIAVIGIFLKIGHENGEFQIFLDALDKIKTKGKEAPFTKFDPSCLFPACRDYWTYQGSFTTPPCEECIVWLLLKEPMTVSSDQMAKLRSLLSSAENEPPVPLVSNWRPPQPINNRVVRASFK
Sequence of Carbonic anhydrase 14 (Q9ULX7 whole entry): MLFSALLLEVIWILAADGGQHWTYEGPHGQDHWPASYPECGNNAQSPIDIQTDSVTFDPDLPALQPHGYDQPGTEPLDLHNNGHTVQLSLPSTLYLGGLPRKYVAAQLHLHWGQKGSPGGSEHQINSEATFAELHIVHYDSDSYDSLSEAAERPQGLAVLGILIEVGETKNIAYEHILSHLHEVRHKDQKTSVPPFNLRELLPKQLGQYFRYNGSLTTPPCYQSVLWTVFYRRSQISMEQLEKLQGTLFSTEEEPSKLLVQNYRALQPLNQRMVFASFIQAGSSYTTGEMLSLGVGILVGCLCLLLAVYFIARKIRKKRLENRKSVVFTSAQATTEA
Sequence of Carbonic anhydrase 5A, mitochondrial (P35218 whole entry): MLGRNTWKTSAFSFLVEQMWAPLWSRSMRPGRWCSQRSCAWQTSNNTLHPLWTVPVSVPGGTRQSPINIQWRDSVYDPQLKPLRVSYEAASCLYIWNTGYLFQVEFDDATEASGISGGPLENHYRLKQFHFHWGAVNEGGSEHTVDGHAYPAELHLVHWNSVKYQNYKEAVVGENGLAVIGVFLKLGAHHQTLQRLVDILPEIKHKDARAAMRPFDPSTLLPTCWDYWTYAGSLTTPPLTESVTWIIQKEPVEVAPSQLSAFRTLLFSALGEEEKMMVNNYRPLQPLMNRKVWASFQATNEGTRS
Sequence of Carbonic anhydrase 4 (P22748 whole entry): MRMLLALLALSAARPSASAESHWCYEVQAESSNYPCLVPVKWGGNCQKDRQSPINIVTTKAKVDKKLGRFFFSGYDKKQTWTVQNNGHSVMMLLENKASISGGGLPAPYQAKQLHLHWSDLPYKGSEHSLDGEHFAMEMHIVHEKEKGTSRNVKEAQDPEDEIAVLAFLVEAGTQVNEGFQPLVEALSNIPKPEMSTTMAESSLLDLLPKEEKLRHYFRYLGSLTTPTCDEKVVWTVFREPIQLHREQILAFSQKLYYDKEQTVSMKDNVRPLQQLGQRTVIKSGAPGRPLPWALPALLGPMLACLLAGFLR
Sequence of Carbonic anhydrase 5B, mitochondrial (Q9Y2D0 whole entry): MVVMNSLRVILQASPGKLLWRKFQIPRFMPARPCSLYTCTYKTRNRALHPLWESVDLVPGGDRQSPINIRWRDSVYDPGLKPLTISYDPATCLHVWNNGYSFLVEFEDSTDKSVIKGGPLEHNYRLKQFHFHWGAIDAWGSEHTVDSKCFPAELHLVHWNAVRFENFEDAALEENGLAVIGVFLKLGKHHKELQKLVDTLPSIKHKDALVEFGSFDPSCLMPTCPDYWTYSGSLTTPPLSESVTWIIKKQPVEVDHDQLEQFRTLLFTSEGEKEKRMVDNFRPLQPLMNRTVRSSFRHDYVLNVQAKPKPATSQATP
Sequence of Carbonic anhydrase 13 (Q9D6N1 whole entry): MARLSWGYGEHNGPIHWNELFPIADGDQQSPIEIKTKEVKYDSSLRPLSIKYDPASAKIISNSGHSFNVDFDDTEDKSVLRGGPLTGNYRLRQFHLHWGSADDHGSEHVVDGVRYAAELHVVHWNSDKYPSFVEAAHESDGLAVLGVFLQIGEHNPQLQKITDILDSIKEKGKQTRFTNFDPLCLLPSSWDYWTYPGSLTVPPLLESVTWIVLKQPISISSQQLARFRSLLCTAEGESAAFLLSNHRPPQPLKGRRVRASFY
Sequence of Carbonic anhydrase 7 (P43166 whole entry): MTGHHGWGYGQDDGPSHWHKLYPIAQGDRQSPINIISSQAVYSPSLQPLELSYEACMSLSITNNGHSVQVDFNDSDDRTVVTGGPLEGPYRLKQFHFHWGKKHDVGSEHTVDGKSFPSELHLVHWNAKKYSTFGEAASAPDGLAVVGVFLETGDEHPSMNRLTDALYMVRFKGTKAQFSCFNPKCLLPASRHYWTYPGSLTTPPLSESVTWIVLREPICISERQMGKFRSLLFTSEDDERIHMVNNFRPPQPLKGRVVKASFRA
Sequence of Carbonic anhydrase 6 (P23280 whole entry): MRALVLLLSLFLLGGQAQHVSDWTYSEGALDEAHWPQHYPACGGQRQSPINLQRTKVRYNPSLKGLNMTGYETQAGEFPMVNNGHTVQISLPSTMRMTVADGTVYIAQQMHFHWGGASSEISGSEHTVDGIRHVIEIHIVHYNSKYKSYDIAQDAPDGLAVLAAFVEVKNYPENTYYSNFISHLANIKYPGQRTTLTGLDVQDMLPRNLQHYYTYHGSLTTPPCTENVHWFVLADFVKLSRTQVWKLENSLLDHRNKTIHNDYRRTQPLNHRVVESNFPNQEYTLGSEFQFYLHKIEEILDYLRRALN

Usually Ki stands for the equilibrium dissociation constant of an inhibitor or competing ligand from its target. Lower therefore signals tighter binding. As to `NS(=O)(=O)c1cc(C2(O)NC(=O)c3ccccc32)ccc1Cl` (configuration not stated) [CHLORTHALIDONE], the Ki in [1] is 0.917 µM; in [2] it was 0.196 µM; in test [3], 4.13 µM; in test [4], 0.023 µM; in [5], 0.138 µM; in test [6] it was 0.015 µM. The Ki in test [7] is 11 µM; in [8], 1.35 µM; in [9] it was 0.009 µM; in [10] it was 0.0028 µM.

In test [7], `NS(=O)(=O)c1cc(C(=O)O)c(NCc2ccco2)cc1Cl` [FUROSEMIDE] came in with a Ki of 3200 µM.

In [7], `CC1Cc2ccccc2N1NC(=O)c1ccc(Cl)c(S(N)(=O)=O)c1` (configuration not stated) [INDAPAMIDE] had an inhibition constant Ki of 230 µM.

(Values after ChEMBL document CHEMBL1143325 (Bioorg Med Chem, 2009).)
